The text below walks through data of patent publication US8198293B2, “Oxymatrine compositions and related methods for treating and preventing chronic infectious diseases” (priority 2008, dated 2012).

One data set relates to chronic hepatitis B. Particulars: oral, after one year of treatment; cited from earlier work.
The test system of data set [1] is Varicella-Zoster Virus (VZV). Put plainly: Case report: chronic recurrent Varicella-Zoster Virus infection (shingles). The format is in vivo, human. Particulars: Example 9 patient, 200 mg bid. As to the method:
A person developed recurrent shingles after multiple episodes of sinus infections and sinus surgeries. They also had chronic indigestion and nausea. Fatigue became so severe that they were bedridden for several years.
Coxsackievirus B4 antibody was 1:320. […] The patient was started on oxymatrine 200 mg bid.

In data set [2] the test system is chronic enterovirus infection / chronic fatigue. Nature of the data set: Case reports: treatment of chronic fatigue (Examples 2-5). In kind it is in vivo, human. As to the method: A person with episodes of diarrhea while traveling to Tonga developed severe respiratory infection soon thereafter. The symptoms consisted of fevers to 105° F., night sweats, diffuse myalgia, tachycardia, fatigue, sinus congestion and cough, and unresponsiveness to antibiotics. The patient developed profound fatigue thereafter and went on total disability three months after the onset of symptoms. Initial Coxsackie B virus (CBV) 3, CVB4 and echovirus 9 antibody titers were 1:320, 1:160, 1:80 (normal <1:10), respectively.
The patient could not work for the next 18 months. They were started on oxymatrine at 300 mg twice a day (bid). After taking oxymatrine for two months, they were able to take short walks, but still exhausted after one hour of activity requiring five hour naps. At the end of three months of therapy, they started having fevers of 104-105° F. for several days with marked decrease in diffuse myalgia. […] CVB3, CVB4 and echovirus antibody three months after therapy were 1:160, 1:160 and 1:20, respectively.
A person who had recurrent episodes of debilitating fatigue became totally incapacitated after approximately 17 years. […] They went into remission but relapsed nine months later after developing a minor upper respiratory infection. They improved minimally after several months of bed rest, but was barely able to work six hours per day. They had brain fog, myalgia ( 7/10 pain) and was barely able to walk even 1-2 blocks.
Three days after taking oxymatrine at a dose of 300 mg bid, the myalgia intensified ( 10/10 pain), especially one hour after taking the pills. One week after starting oxymatrine, routine laboratory tests including CBC, chemistry panel and creatine phosphokinase (CPK) were normal. They continued having significant fatigue and myalgia for the next three weeks, but the symptoms resolved one week after stopping the medication. Mild increase in myalgia recurred three days after resuming oxymatrine, but resolved after continuing the medication for the next two weeks. The patient felt well at the end of three months with minimal discomfort in a few muscle groups.
Severe myalgia recurred after resuming vigorous exercise for three weeks while taking oxymatrine. They had to stop exercise for the two months allowing cessation of myalgia. After taking oxymatrine for six months, the patient felt well. Over the next six months after stopping the medication, the patient continuously performed heavy physical activities without significant difficulty. After developing another episode of upper respiratory symptoms, their symptoms relapsed. They have resumed oxymatrine but experienced increasing myalgia as the fatigue improved.
A person with a known history of frequent respiratory infections and vasovagal syncope developed respiratory infection, which was followed by bedridden fatigue. Enteroviral protein was detected in the stomach biopsy consistent with chronic enterovirus infection. […] After vigorous exercise, they would still have relapses of bedridden fatigue for one day but continued to work 10-12 hours per day for the next 12 months, walking two miles per day. Laboratory tests were normal while on therapy.
A person developed debilitating fatigue, sore throat, oral ulcers, vertigo, headaches and cognitive dysfunction two months after having a flu-like illness. […] Approximately four years later, the patient started taking oxymatrine. After an initial increase of gastrointestinal symptoms for the first two weeks, the patient tolerated 500 mg per day of oxymatrine.
The symptoms continued for two weeks and resolved after stopping oxymatrine. […] They continued to improve for 12 months after taking the medication.

The test system of another data set is coxsackievirus B. Particulars: in vitro, cell cultures; mechanism not defined; cited from earlier work.

With `O=C1CCC[C@@H]2[C@H]3CCC[N@+]4([O-])CCC[C@@H](CN12)[C@@H]34` [oxymatrine], the overall cure rate entry in the data set on chronic hepatitis B is “about 40%”. Further, in data set [1], the outbreaks of shingles entry was “less often and not as severe”. For the same compound, the clinical outcome in data set [1] (three months) was “went back to full-time work”; in data set [2] (Example 2 patient, three months after finishing the medication) it was “went back to full-time work”; in data set [2] (Example 3 patient, after taking oxymatrine for six months) it was “felt well”; in data set [2] (Example 4 patient, after taking the medication for six weeks) it was “returned to full-time work”; in data set [2] (Example 5 patient, three months later), “able to return to part-time work and regular exercise”. The relapse after therapy result in data set [2] (Example 2 patient) was “had not relapsed for at least one year”. The “laboratory studies including CBC and complete chemistry panel during therapy” value in data set [2] (Example 2 patient, calcium resolved after stopping hydrochlorothiazide) was “normal except mildly elevated calcium levels”. Also, the “routine laboratory tests including CBC, chemistry panel and CPK” value in data set [2] (Example 3 patient, one week after starting oxymatrine) is reported as “normal”. Besides, the myalgia pain score in data set [2] (Example 3 patient, three days after starting 300 mg bid, 7/10 before) is 10/10. In data set [2] (Example 4 patient), the “laboratory tests while on therapy” value is recorded as “normal”. In data set [2] (Example 4 patient), the tolerability result is listed as “tolerated well without any adverse reactions”. For the same compound, in data set [2] (Example 5 patient, two months on 500 mg per day, resolved after stopping oxymatrine), the symptoms during therapy result is “severe diffuse ulcerations of the mouth mucosa, increasing headache, sinus congestion and severe myalgia”. For the same compound, the “growth inhibition of coxsackievirus B” value in the data set with coxsackievirus B is recorded as “growth inhibition”.
